From patent US12677850B2, “Stevia blends containing rebaudioside B” (Tate & Lyle Solutions USA LLC, priority 2011, dated 2026)

Tests used:
[1] = system: panelists (descriptive panel); assay: Descriptive panel: flavor attributes and intensities as a function of rebaudioside B content (Example 6); assay type: in vivo, human; settings: for Anise, comparison between the samples / Artificial Sweetener/Chemical, comparison between the samples / Sweetness, comparison between the samples / Total Flavor, comparison between the samples / True Bitter, comparison between the samples / Mouthcoating, comparison between the samples / Total Off Flavor, comparison between the samples: significant at the 95% confidence level
Protocol: A descriptive panel was used to quantify flavor attributes and intensities of varying levels of rebaudioside B added to rebaudioside A (which was 97% pure and contained 0.62% rebaudioside B). […] An 8% sucrose solution as a control. The solutions were prepared in neutral pH water. Other high intensity sweeteners included in the testing were Aspartame at 500 ppm, ASK at 750 ppm, Sucralose at 250 ppm, and Stevia at 500 ppm.
Before conducting the testing the ten panelists were extensively trained in the use of standardized vocabulary to describe the appearance, aroma, flavor, and texture of a wide variety of products in order to rate the samples for sweetness, bitterness, off flavor, chemical or artificial sweetener flavor, anise, and mouth coating. Each such attribute was evaluated on a first and second sip, and on after-taste. The testing began with a session to orient the panelists during which they tasted the samples and discussed the flavor characteristics. They also tasted and discussed references for “sweet”, “bitter”, and “anise”.
During the second and third days of testing, the panelists evaluated the samples for the various attributes and rated them on a scale from none to extreme that encompasses all food ingredient products, not just sweeteners. The products and solutions set forth in Table 19 were used to “anchor” the panelist to the scales.
Eight samples were evaluated per session. A 7 minute rest break was given between each sample and a 15 minute break was given after the first 4 samples had been evaluated. Two evaluations (i.e. replicates) were obtained from each panelist for each product; therefore, a total of 20 judgments were obtained for each product. During data collection, the panelists were instructed to indicate the intensity of each sensory characteristic by placing a vertical slash on 15-cm line scales. The serving order was balanced, with products seen approximately an equal number of times in each possible position. In the waiting room, ambient Alhambra drinking water, unsalted soda crackers, and celery were provided for cleansing the palate between samples.
Slash marks on the line scales were converted to numbers ranging from 1 to 15 by SIMS, the computerized sensory data collection system. Mean intensities were calculated for each sensory characteristic. Analysis of Variance and Duncan's Multiple Range Test, where appropriate, were used to determine significant differences among the samples for each attribute. When panelist-by-product interactions were significant, the mean square of the interaction term, instead of the mean square of the error term, was used in calculation of the product F values.
The flavor attributes were also compared between the samples.

[2] = assay type: physicochemical; settings: pH 3
Protocol: To determine the solubility of rebaudioside A and rebaudioside B in certain solutions, four stock solutions were prepared. A 10× concentrated citric acid/sodium citrate pH 3 stock buffer solution was prepared by dissolving 0.9 g anhydrous citric acid and 0.26 g of sodium citrate dihydrate in water to make 100 mL of buffer (0.047 M citric acid+0.0088 M sodium citrate). A 2500 ppm (nominal) solution of rebaudioside A was prepared by dissolving 0.125 g of GLG RA 97 to make 50 mL of solution. A 2500 ppm (nominal) solution of stevioside was prepared by dissolving 0.125 g of GLG STV 97 to make 50 mL of solution. A 1000 ppm (nominal) solution of rebaudioside B was prepared by diluting 56 mL of a solution assayed at 1790 ppm to make 100 mL of solution.
These solutions were mixed as 1 mL total amounts by micropipetting the volumes, in microliters, into 1.5 mL microcentrifuge tubes As shown in Table 14.
After standing for […] (~100 hours), the tubes were spun in a bench top microcentrifuge to pelletize the precipitate. The clear supernate was sampled into vials and assayed for glycosides using a reverse phase high performance liquid chromatograph (HPLC) gradient method with UV detection (Waters 2695 Separations Module equipped with a Waters 2487 Dual X Absorbance Detector or equivalent instrumentation) that is summarized in Table 15. The HPLC conditions were as follows:
The supernatant data collected from the HPLC were processed using DESIGN EXPERT 8 software. Briefly, the data were entered into the program as “factor” data as a 2 factor-5 level general factorial design as the nominal data which were then converted to numerical data and replaced by the actual HPLC results. The software then selected a model that predicted the concentration (solubility) of rebaudioside B as a function of the concentration of rebaudioside A and stevioside in the supernatant. The software also calculated a number of statistical factors that indicated the significance of the model parameters.

informal testers = assay: Informal testing of bitterness; assay type: in vivo, human; settings: adding about 20%; as believed by several informal testers
Source text: Because the scale used encompasses “the universe”, the magnitude of differences between the 97% rebaudioside A solution and increasing levels of rebaudioside B is not as large as other informal testing determined.

[3] = system: Tate & Lyle employees (taste panel); assay: Paired comparison test for sweetness and preference in pH 3.1 citric acid buffer (Examples 1 and 2); assay type: in vivo, human
Protocol: A commercial blend of a steviol glycosides was dissolved in 0.0056 M citric acid buffer pH 3.1. A solution containing a commercially available sweetening composition containing 97% rebaudioside A was similarly prepared. Thirty-one […] employees participated in paired comparison tests for sweetness and preference. The products were made up in pH 3.1 citric acid buffer (0.9 grams anhydrous citric […], Decatur, IL) and 026 grams sodium citrate dihydrate ([…], Decatur, IL) per liter and tested at room temperature in two ounce soufflé cups label with random three-digit codes. The presentation order was rotated. The panelists were asked to identify the solution that was sweeter and which they like better. The ballot was presented and the data was collected with SIMS sensory software (Sensory Computer Systems, LLC, Morristown, NJ). Bottled water, a 2% sucrose solution, and unsalted crackers were available for the panelists to clear their palates before and during testing. The results of the sweetness and preference questions were analyzed with the binomial test and the Thurstonian d' calculated. The p-value for a one-tailed binomial test is calculated as [formula] where c is the number of successes, n is the number of trials, and p0 is the chance probability. A test is considered statistically significant when the p-value is less than the a priori set alpha risk. The two-tailed p-value is double the one-tailed p-value as calculated above. Thurstonian d' is a linear measure of psychophysical difference. A d' of 1 is generally considered to be a just-noticeable-difference (JND) where a stimulus will be judge stronger in 75% of the trials. The Thurstonian d' is independent of test method and for paired comparison tests is calculated as pc=Φ(d'/√{square root over (2)}) where pc is the proportion of successes, and Φ(•) is the cumulative distribution function of the standard normal distribution. These statistical terms are more fully defined in standard textbooks on the subject such as “Sensory Discrimination Tests and Measurements”, Jian Bi (Blackwell Publishing, 2006). The instructions for the paired comparison test were: • (i) It is important that you rinse before and between samples. • (ii) Clear your palate with a bite of cracker. Then rinse with the sugar water. […] Pick the sample that you like more and pick the sample that is sweeter. They may or may not be the same sample. If you are not sure or don't have a preference then pick either one. The questions for the paired comparison test were: • (i) Which of these two samples do you like more?, • (ii) Which of the two samples is sweeter? The glycoside blend of a steviol glycosides was dissolved in 0.0056 M citric acid buffer pH 3.1. A solution containing a commercially available sweetening composition containing 97% rebaudioside A was similarly prepared. The two solutions were presented to a panel of […] employees and they were asked to identify the solution that was sweeter and which they like better using the same instructions and questions as set forth above. The results of the sweetness and preference questions were analyzed with the binomial test and the Thurstonian d' calculated as set forth above. A taste panel was asked to compare a commercial mixture of rebaudioside A and stevioside to a 500 ppm sample of 97% rebaudioside A. The glycoside blend of steviol glycosides was dissolved in 0.0056 M citric acid buffer pH 3.1. A solution containing a commercially available sweetening composition containing 97% rebaudioside A was similarly prepared. Sample presentation was rotated and the samples of the two solutions (at room temperature) were presented to a panel of […] employees and they were asked to identify the solution that was sweeter and which they like better using the same instructions and questions as in Example 1. […] Another panel was asked to compare a mixture of rebaudioside B and Stevioside. The glycoside blend of steviol glycosides was dissolved in 0.0056 M citric acid buffer pH 3.1. […]

[4] = system: Tate & Lyle employees (taste panel); assay: Paired comparison test for sweetness and preference, Reb A/Reb B mixture vs 900 ppm 97% rebaudioside A (Example 3); assay type: in vivo, human; settings: 536 ppm Reb A + 310 ppm Reb B vs control 900 ppm Reb A; spring water with phosphoric acid; room temperature; test sample tasted first
Protocol: A taste panel was asked to compare a commercial mixture of rebaudioside A and rebaudioside B and a 900 ppm sample of 97% rebaudioside A. Tate &Lyle employees participated in paired comparison tests for sweetness and preference. Samples were tested at room temperature in two ounce soufflé cups label with random three-digit code& The presentation order was not rotated because of carryover of the off-flavor of rebaudioside A at 900 ppm. The panelist evaluated the test sample first and then the control 900 ppm rebaudioside A sample. The panelists were instructed not to re-taste the samples. Additionally, the panelists were required to wait one minute between testing samples and instructed to clear their palates with a 2% sucrose solution, an unsalted cracker, and bottled water. The panelists were asked to identify the solution that was sweeter and which they like better. The ballot was presented and the data was collected with SIMS sensory software (Sensory Computer Systems, LLC, Morristown, NJ).
The instructions for the paired comparison test were: • (i) It is important that you rinse before and between samples. • (ii) Clear your palate with a bite of cracker. Then rinse with the sugar water. […]

[5] = 900 ppm rebaudioside A+rebaudioside B in neutral pH water, 8% sucrose control, 15-cm line scale converted to 1 to 15, aftertaste
[6] = 900 ppm rebaudioside A+rebaudioside B in neutral pH water, 8% sucrose control, 15-cm line scale converted to 1 to 15, first sip
[7] = 900 ppm rebaudioside A+rebaudioside B in neutral pH water, 8% sucrose control, 15-cm line scale converted to 1 to 15, second sip
[8] = Commercial Blend (total 518 mg/l) vs 97% rebaudioside A (total 498), room temperature, 31 panelists
[9] = Rebaudioside A & stevioside blend (total 789 mg/l) vs 500 ppm 97% rebaudioside A, 41 panelists
[10] = Rebaudioside B & stevioside blend (total 801 mg/l) vs 97% rebaudioside A (500 ppm), 43 panelists
[11] = Rebaudioside B blend (total 496 mg/l, about 21% Reb B) vs 97% rebaudioside A (total 498), 38 panelists

OC[C@H]1O[C@@](CO)(O[C@H]2O[C@H](CO)[C@@H](O)[C@H](O)[C@H]2O)[C@@H](O)[C@@H]1O [Sucrose, sucrose]
ANISE: Aftertaste (mean intensity) [1, 5]: 0.13
ARTIFICIAL SWEETENER/CHEMICAL: Aftertaste (mean intensity) [1, 5]: 0.12
SWEET: Aftertaste (mean intensity) [1, 5]: 3.92
TOTAL FLAVOR: Aftertaste (mean intensity) [1, 5]: 4.32
TRUE BITTER: Aftertaste (mean intensity) [1, 5]: 0.15
ANISE: First Sip (mean intensity) [1, 6]: 0.52
ARTIFICIAL SWEETENER/CHEMICAL: First Sip (mean intensity) [1, 6]: 0.59
MOUTHCOATING: First Sip (mean intensity) [1, 6]: 0.76
SWEET: First Sip (mean intensity) [1, 6]: 8.06
TOTAL FLAVOR: First Sip (mean intensity) [1, 6]: 8.67
TOTAL OFF FLAVOR: First Sip (mean intensity) [1, 6]: 0.89
TRUE BITTER: First Sip (mean intensity) [1, 6]: 0.29
ANISE: Second Sip (mean intensity) [1, 7]: 0.41
ARTIFICIAL SWEETENER/CHEMICAL: Second Sip (mean intensity) [1, 7]: 0.41
MOUTHCOATING: Second Sip (mean intensity) [1, 7]: 0.89
SWEET: Second Sip (mean intensity) [1, 7]: 7.43
TOTAL FLAVOR: Second Sip (mean intensity) [1, 7]: 7.86
TOTAL OFF FLAVOR: Second Sip (mean intensity) [1, 7]: 0.49
TRUE BITTER: Second Sip (mean intensity) [1, 7]: 0.24
Anise, comparison between the samples ([1]; aftertaste): Lowest
Artificial Sweetener/Chemical, comparison between the samples ([1]; aftertaste): Lowest
Sweetness, comparison between the samples ([1]; aftertaste): Lowest
Total Flavor, comparison between the samples ([1]; aftertaste): Lowest
True Bitter, comparison between the samples ([1]; aftertaste): Lowest
Anise, comparison between the samples ([1]; first sip): Lowest
Artificial Sweetener/Chemical, comparison between the samples ([1]; first sip): Lowest
Mouthcoating, comparison between the samples ([1]; first sip): Lowest
Sweetness, comparison between the samples ([1]; first sip): Lowest
Total Flavor, comparison between the samples ([1]; first sip): Lowest
Total Off Flavor, comparison between the samples ([1]; first sip): Lowest
True Bitter, comparison between the samples ([1]; first sip): Lowest
Anise, comparison between the samples ([1]; second sip): Lowest
Artificial Sweetener/Chemical, comparison between the samples ([1]; second sip): Lowest
Mouthcoating, comparison between the samples ([1]; second sip): Lowest
Total Flavor, comparison between the samples ([1]; second sip): Lowest
Total Off Flavor, comparison between the samples ([1]; second sip): Lowest
True Bitter, comparison between the samples ([1]; second sip): Lowest

C=C1C[C@@]23CC[C@H]4[C@@](C)(CCC[C@@]4(C)C(=O)O[C@@H]4O[C@H](CO)[C@@H](O)[C@H](O)[C@H]4O)[C@@H]2CC[C@]1(O[C@@H]1O[C@H](CO)[C@@H](O)[C@H](O)[C@H]1O[C@@H]1O[C@H](CO)[C@@H](O)[C@H](O)[C@H]1O)C3 [stevioside]
effect of its presence on the solubility of rebaudioside B [2]: slightly reduces

rebaudioside A
effect of its presence on the solubility of rebaudioside B [2]: increases
reduction of bitterness ([1]; adding about 20%, results from the descriptive panel of tasters): about 30%
reduction of bitterness (informal testers): about 80%

rebaudioside A [97% rebaudioside A]
# preferring [3, 8]: 20
# sweeter [3, 8]: 15
# preferring [3, 9]: 37
# sweeter [3, 9]: 19
# preferring [3, 10]: 22
# sweeter [3, 10]: 13
# preferring [3, 11]: 11
# sweeter [3, 11]: 11

rebaudioside A [control 900 ppm Reb A]
preference (number of panelists preferring the sample) [4]: 2
sweetness (number of panelists choosing the sample as sweeter) [4]: 15
